# Measurements: US5032575A, “Method for enhancing healing of corneal endothelial wounds” (Eye Research Institute of Retina Foundation, Inc., priority 1989, dated 1991)
# Entries after “also recorded” stand apart in the source; their conditions may differ. Like-named read-outs stand apart in the source and are kept apart here.
# Columns and labels:
# [1] = tested on: cultured corneal endothelial cells; assay: Pharmacological regulation of morphology and mitosis in cultured rabbit corneal endothelium (Example 2); format: cell-based
# [2] = tested on: rabbit corneal endothelial cells; assay: Cell shape morphometry of confluent cultured rabbit corneal endothelial cells (Example 1); details: for cell shape at confluence / mean / distribution of the major axes (Amax): cultured seven days; for cell shape at confluence: control cells polygonal; for mean / distribution of the major axes (Amax): control mean 33 μ; for rank order of potency of cyclooxygenase inhibitors on cell shape: effect on cell shape in presence of EGF; for ratio Per/Amax: perimeter / major axis, 3.14 for a perfectly round cell; for potentiation of EGF-induced elongation: 10^-5, equimolar, in presence of EGF
# [3] = tested on: cultured corneal endothelial cells; details: control cultures and cultures with EGF
# [4] = tested on: Corneal endothelial cells; assay: f-actin labelling with rhodamine labelled phallacidin in cultured corneal endothelial cells; details: 1 week culture; control shows circumferential bands of f-actin
# [5] = tested on: rabbit corneal endothelial cells; details: cited from earlier work; for cell shape in first passage cultures (rabbit): EGF and/or indomethacin
# [6] = tested on: human corneal endothelial cells; details: EGF and/or indomethacin; cited from earlier work
# cat corneal endothelium = details: 22° C.; cited from earlier work
# [7] = tested on: most cell culture systems; details: cited from earlier work
# [8] = tested on: intact rabbit corneal endothelium; assay: Endothelial wound closure in excised rabbit corneas, specular microscopy with morphometric analysis (Example 3)
# [9] = tested on: Corneal endothelial cells; assay: Transmission electron microscopy of pharmacologically modulated endothelial phenotypes; details: cultured cells
# [10] = EGF 10 ng/ml, indomethacin 1 μM in M-K medium
molecule,measurement,setting,value
COc1ccc2c(c1)c(CC(=O)O)c(C)n2C(=O)c1ccc(Cl)cc1 [indomethacin],"cellular elongation, INDO added to TPA containing medium",[1]; with TPA,marked enhancement of cellular elongation
same,"final cell density, INDO added to TPA containing medium",[1]; with TPA,had no effect on final cell density
same,cell shape at confluence,[2],elongated at confluence with a stellate shape
same,mean / distribution of the major axes (Amax),[2],increases
same,rank order of potency of cyclooxygenase inhibitors on cell shape,[2],indomethacin>suprofen>flurbiprofen
same,ratio Per/Amax,[2],2.6
same,synthesis of PGE2,[3],totally inhibits
same,f-actin staining pattern,[4],almost completely lacking in individual actin fibers
same,cell shape in first passage cultures (rabbit),[5],cause elongation
same,PGE2 synthesis by cultures of polygonal endothelial cells,[5],totally inhibited
same,cell shape in first passage cultures (human),[6],cause elongation
CC(C(=O)O)c1ccc(C(=O)c2cccs2)cc1 (stereo not shown) [suprofen],potentiation of EGF-induced elongation,[2],Potentiation of EGF-induced elongation also occurs
same,rank order of potency of cyclooxygenase inhibitors on cell shape,[2],indomethacin>suprofen>flurbiprofen
epidermal growth factor [EGF],cell density,[2]; compared with cells grown under control conditions,little or no effect on cell density
same,cell shape at confluence,[2],spindle-shaped at confluence
same,mean / distribution of the major axes (Amax),[2],significantly greater distribution of major axes
same,ratio Per/Amax,[2],decreases significantly
same,synthesis of PGE2,[3],unaffected
same,time for association of radiolabeled EGF to be complete,cat corneal endothelium,approximately 120 minutes
same,cell shape in first passage cultures (rabbit),[5],cause elongation
same,shape change in cultured rabbit tissue (April 1986 paper),[5],induce a shape change in the cells that is independent of mitosis
same,time after addition at which DNA synthesis reaches a maximum,[7],about 22 hours
same,time after addition at which increased DNA synthesis begins,[7],approximately 15 hours
same,cell shape in first passage cultures (human),[6],cause elongation
same,average percent change of the shape factor relative to control group,[8]; 150 minutes after wounding,two times greater
same,average displacement of cells near the wound boundary,"[8]; 150 minutes after wounding, control 7 μm",~16 μm
same,migration of cells near the wound boundary vs control group,[8]; [10],migrated significantly more than those in the control group; also recorded: significantly increased migration of cells near the wound boundary
same,wound closure time vs control group,[8]; [10],shortened the wound closure time
same,time after wounding at which wound area reached maximum,"[8]; EGF 10 ng/ml, indomethacin 1 μM in M-K medium, 37° C., control 20 minutes",10 min
same,time for wound area to decrease to 50% of the original size,"[8]; EGF 10 ng/ml, indomethacin 1 μM, control about 240 minutes",≤ 120 min
same,"relative average percent change of the shape factor, significance vs control (FIG. 3)","[8]; EGF+indomethacin at 50, 100, 150 minutes, EGF at 100 and 150 minutes",significantly different from the control group
same,time of peak of the shape change,"[8]; one cornea per group, control 200 minutes",150 min
same,wound closed to percent of the original size,[8]; within 250 minutes after wounding,80%
same,ultrastructure by transmission electron microscopy,[9],Junctional complexes were absent
C[C@@H]1C[C@H]2[C@@H]3CCC4=CC(=O)C=C[C@]4(C)[C@@]3(F)[C@@H](O)C[C@]2(C)[C@@]1(O)C(=O)CO [dexamethasone],potentiation of EGF-induced elongation,[2],has no effect
same,rank order of potency of cyclooxygenase inhibitors on cell shape,[2],inactivity
CC(C(=O)O)c1ccc(-c2ccccc2)c(F)c1 (stereo not shown) [flurbiprofen],rank order of potency of cyclooxygenase inhibitors on cell shape,[2],indomethacin>suprofen>flurbiprofen
"CCCCC[C@H](O)/C=C/[C@H]1[C@H](O)CC(=O)[C@@H]1C/C=C\CCCC(=O)O [PGE2, prostaglandin E2]",effect of exogenous PGE2 on elongation in cultures treated with EGF and indomethacin,[5]; added with EGF and indomethacin,blocks elongation
Cholera toxin,"cell shape (elongation), agent alone",[1],had no effect on cell shape
same,effect on EGF and INDO-induced elongation,[1],antagonized EGF and INDO-induced elongation
same,effect on EGF-induced elongation,[1],EGF-induced elongation did not occur
same,effect on cell density / mitosis in presence of EGF and INDO,[1],without preventing increased cell density
same,effect on elongation in response to TPA,[1],did not prevent elongation in response to TPA
same,effect on mitogenic effect of EGF,[1],potentiated
same,effect on mitogenic response to TPA,[1],potentiate the mitogenic response
C=C[C@@]1(C)CC(=O)[C@]2(O)[C@@]3(C)[C@@H](O)CCC(C)(C)[C@@H]3[C@H](O)[C@H](OC(C)=O)[C@@]2(C)O1 [Forskolin],effect on EGF and INDO-induced elongation,[1]; added with EGF and INDO,prevented EGF and INDO-induced elongation
same,effect on cell density / mitosis in presence of EGF and INDO,[1]; added with EGF and INDO,inhibited endothelial mitosis
CCCCC/C=C\C/C=C\C/C=C\C/C=C\CCCC(=O)O [arachidonic acid],effect on cell shape,"[2]; added in the absence of EGF, in the presence or absence of indomethacin",had no effect on cell shape
CCCCCCCCCCCCCC(=O)O[C@@H]1[C@@H](C)[C@@]2(O)[C@@H](C=C(CO)C[C@]3(O)C(=O)C(C)=C[C@@H]23)[C@H]2C(C)(C)[C@]12OC(C)=O [TPA],"cell density / mitosis, agent alone",[1],increased cell density
same,"cell shape (elongation), agent alone",[1],caused elongation
same,synergy when TPA and EGF both present in the medium,[1],synergistic effects were not noted
CCCCC[C@H](O)/C=C/[C@@H]1[C@@H](C/C=C\CCCC(=O)O)[C@@H](O)C[C@H]1O [PGF2α],effect on elongation of Amax produced by EGF and indomethacin,[2]; increasing concentrations/doses added with EGF and indomethacin,has no effect on the elongation of Amax
